The record followed here is US11319341B2, “Immune-stimulating soluble doxorubicin-conjugated complex” (Yafei (Shanghai) Biopharmaceutical Co., Ltd., priority 2016, dated 2022).

A word on the solubility: it is the dissolved amount per volume that the medium holds. Low readings indicate a poorly soluble substance, high ones a readily soluble substance.

In one data set the test system is HT1080 cells. The data set can be described thus: Efficacy in HT1080 tumor model. Format: in vivo. The following applies: HT1080, nude mice, 18 umol/kg IV once weekly for 3 weeks. The source says:
Test purpose: to investigate the anti-tumor efficacy of QHL-086, QHL-092, QHL-095, QHL-087, QHL-010, QHL-117 in mice model for tumor treatment.
Test drug: C3, QHL-086, QHL-092, QHL-095, QHL-087, QHL-010, QHL-117 injections and mitomycin injection, diluted to corresponding concentrations by physiological saline when testing.
(§1) 1. Animal: nude mice of 6-8 weeks old, all female.
1) HT1080 cells were purchased from American type culture collection (ATCC) and identified according the specification provided by ATCC.
(§2) 2) Production of tumor. […] Mice were randomly grouped after the tumor reached at least 100 mm^3. Then treatment began and the day on which the treatment began was day 1.
According to the clinical application of C3, QHL-086, QHL-092, QHL-095, QHL-087, QHL-010, QHL-117 were intravenously injected (IV). C3, QHL-086, QHL-092, QHL-095, QHL-087, QHL-010, QHL-117 were administered in a low and same dose of 18 umol/kg. The control group was administered by physiological saline. Drugs were administered once weekly for 3 weeks.

In data set [1] the test system is Human liver cancer HepG2 cells. The experiment in a line: Efficacy on human liver cancer HepG2 cells in nude mice. Format: in vivo. The following applies: 54 umol/kg IV once weekly for four weeks.
Text: Test purpose: to investigate the anti-tumor efficacy of some compounds of the invention in mice model for tumor treatment.
Test drug: QHL-095, QHL-008, QHL-086, QHL-116, QHL-119, QHL-092, QHL-006, QHL-089, QHL-005, QHL-007, QHL-096, QHL-012, QHL-087, QHL-117, QHL-120, QHL-093, QHL-010, QHL-090, QHL-009, QHL-011 injections and control group injection, diluted to corresponding concentrations by physiological saline when testing.
as §1
1) Human liver cancer HepG2 cells were purchased from American type culture collection (ATCC) and identified according the specification provided by ATCC.
as §2
According to the clinical application of QHL-095, QHL-008, QHL-086, QHL-116, QHL-119, QHL-092, QHL-006, QHL-089, QHL-005, QHL-007, QHL-096, QHL-012, QHL-087, QHL-117, QHL-120, QHL-093, QHL-010, QHL-090, QHL-009, QHL-011, drugs were intravenously injected (IV). Compounds and control groups were administered in a dose of 54 umol/kg. The control group was administered by physiological saline. Drugs were administered once weekly for four weeks.

Data set [2] has as its system acidized human breast cancer (MDA-MB435) tumor tissue homogenates. The data set can be described thus: Activation efficiency of the linker by tumor tissue homogenates (HPLC). Format: biochemical. The following applies: Table 4-1; 37° C., MDA-MB435 tumor tissue homogenates pH6.0, compound 1 mg/ml. The protocol: When the C selected AAN, The activation of different S-C-A linker and control linker was evaluated in the activation assay, The S-C-A conjugate was used to dissolve and they were diluted for ten times to a concentration of 0.1 mM/ml. At 37° C., sample compounds were added into 100 μg acidized human breast cancer (MDA-MB435) tumor tissue homogenates (pH6.0) in a concentration of 1 mg/ml. The enzyme in tumor tissue homogenates could release and detected by HPLC, thereby comparing the activation efficiency of the linker by the tumor tissue.

Data set [3] can be described thus: Water solubility of freeze-dried compounds in water (observation and HPLC).
A further data set deals with CT26 tumor cells. The data set can be described thus: CT26 tumor immune model: inhibition of tumor. Format: in vivo. The following applies: CT26 subcutaneous tumor, BALB/c mice, compounds 18 μmol/kg, mouse PD-1 antibody 5 mg/kg.
In the next data set the test system is tumor CD8+ T cells. The data set can be described thus: CT26 tumor immune model: tumor CD8+ T cells (CD8 positive in CD45 positive cells, flow cytometry). Format: in vivo, BALB/c mice. The following applies: ratio of CD8 positive cells in CD45 positive cells in tumor, compounds 18 μmol/kg, PD-1 antibody 5 mg/kg. For orientation: In flow cytometry, cells or beads pass a laser one at a time.

Data set [4] in a line: Tissue distribution of released doxorubicin in orthotopic transplantation CT26 tumor in liver. The following applies: tissues at 1-72 hr, FIG. 2, FIG. 3.
Method: Production of tumor model: CT26 tumor cells were purposed from ATCC. Cells were cultivated in DMEM culture solution containing 10% fetal bovine serum at 37° C. and 5% CO2. The cells were passaged for every three days and cells within the 15th passage were used.
5×10^5CT26 cancer cells were subcutaneously injected to the back of the nude mice. Mice were randomly grouped after the tumor reached 800-1000 mm^3. Then extract the tumor tissue and cleave to 100 mm3 tumor tissue block and orthotopic transplant into BALB/c mice liver. After 14 days, when orthotopic transplantation tumor grow up, 36 mice with orthotopic transplantation tumor for a group are treated with drug. Then collect the different tissue at 1, 6, 12, 24, 36, 72 hr to detect the concentration of releasing doxorubicin in different tissue.

Non-standard residues stand in square brackets, D forms with d. Residues, ends and D or L forms follow the SMILES beside them. ξ: configuration not given here. *: point of attachment. Doxorubicin(3'-N) = COc1cccc2c1C(=O)c1c(O)c3c(c(O)c1C2=O)C[C@@](O)(C(=O)CO)C[C@@H]3O[C@H]1C[C@H](N*)[C@H](O)[C@H](C)O1; Hexanoyl(6-maleimido) = O=C1C=CC(=O)N1CCCCCC(=O)*; ξL = CC(C)CC(N)C(=O)O

Method for CT26 tumor cells: Test purpose: to investigate the anti-tumor efficacy of different compounds in CT26 cancer model for immune treatment.
1) CT26 tumor cells were purposed from ATCC. Cells were cultivated in DMEM culture solution containing 10% fetal bovine serum at 37° C. and 5% CO2. The cells were passaged for every three days and cells within the 15th passage were used.
(§3) 2) 5×10^5CT26 cancer cells were subcutaneously injected to the back of the nude mice. Mice were randomly grouped after the tumor reached at least 100 mm^3 Then treatment began and the day on which the treatment began was day 1.
Method for tumor CD8+ T cells: as §3
3) Analysis on tumor CD8+ T cells. The tumor tissue was homogenated and individual cells in the tumor were filtered, separated and washed by buffer twice, then cultivated with the leucocyte common antigen CD45-PE and CD8-FITC marked antibodies for 1 hour at ambient temperature. The cells were washed by phosphate buffer containing 1% fetal bovine serum twice and then analyzed for the ratio of the T lymphocyte antigen (CD8) positive cells in the leucocyte common antigen (CD45) positive cells by flow cytometry.

With `COc1cccc2c1C(=O)c1c(O)c3c(c(O)c1C2=O)C[C@@](O)(C(=O)CO)C[C@@H]3O[C@H]1C[C@H](N)[C@H](O)[C@H](C)O1` [C1 DOX, Doxorubicin], in the data set on HT1080 cells, the “Size of tumor (mm^3) Day 28” value is 754.4 ± 587.4 mm^3 and the “inhibitory rate on tumor Day 28” value stood at 56.8%. Further, in data set [1], the “Size of tumor (mm^3) Day 28” value is listed as 1683.4 ± 1087.4 mm^3 and the “inhibitory rate on tumor Day 28” value was found to be 41.9%.

For `COc1cccc2c1C(=O)c1c(O)c3c(c(O)c1C2=O)C[C@@](O)(C(=O)CO)C[C@@H]3O[C@H]1C[C@H](NC(=O)C(CC(C)C)NC(=O)[C@H](CC(N)=O)NC(=O)[C@H](C)NC(=O)[C@H](C)N)[C@H](O)[C@H](C)O1` (some centres unmarked) [C2 AANL-DOX] (H-AAN[ξL]-{Doxorubicin(3'-N)}), the “Activation (%)” value in data set [2] was determined as 42.1%. Moreover, in the data set on HT1080 cells, the “Size of tumor (mm^3) Day 28” value is on record as 318.5 ± 197.6 mm^3 and the “inhibitory rate on tumor Day 28” value is reported as 81.8%. In data set [1], the “Size of tumor (mm^3) Day 28” value is listed as 1564 ± 689.4 mm^3 and the “inhibitory rate on tumor Day 28” value came out at 46.0%. Besides, the solubility in data set [3] is < 1000 µg/mL.

Take `COc1cccc2c1C(=O)c1c(O)c3c(c(O)c1C2=O)C[C@@](O)(C(=O)CO)C[C@@H]3O[C@H]1C[C@H](NC(=O)[C@H](CC(C)C)NC(=O)[C@H](CC(N)=O)NC(=O)[C@H](C)NC(=O)[C@H](C)NC(=O)CCCCCN2C(=O)C=CC2=O)[C@H](O)[C@H](C)O1` [C3 EMC-AANL-DOX]: the “Activation (%)” value in data set [2] amounted to 56.4%. Moreover, the figures for the “Size of tumor (mm^3) Day 28” value (in the data set with HT1080 cells; in data set [1]; with CT26 tumor cells (Day 28)) were 138.3 ± 124.6 mm^3, 218.3 ± 167.7 mm^3 and 624.5 ± 313.6 mm^3, respectively. The figures for the “inhibitory rate on tumor Day 28” value (in the data set on HT1080 cells; in data set [1]) were 92.1% and 92.5%, respectively. Further, in the data set with CT26 tumor cells (Day 18 as printed), the “inhibitory rate on tumor % Day 18” value turned out to be 66.9%. The “CD8:CD45 (%)” value in the data set with tumor CD8+ T cells was found to be 8.9%. The solubility in data set [3] was < 5000 µg/mL. Besides, the “active doxorubicin tissue distribution, in words” value in data set [4] was “major in orthotopic tumor in liver”.

In the case of `COc1cccc2c1C(=O)c1c(O)c3c(c(O)c1C2=O)C[C@@](O)(C(=O)CO)C[C@@H]3O[C@H]1C[C@H](NC(=O)[C@H](CC(C)C)NC(=O)[C@H](CC(N)=O)NC(=O)[C@H](C)NC(=O)[C@H](C)NC(=O)[C@@H](NC(=O)CCCCCN2C(=O)C=CC2=O)C(C)C)[C@H](O)[C@H](C)O1` [QHL-123] ({Hexanoyl(6-maleimido)}-VAANL-{Doxorubicin(3'-N)}), the solubility in the data set “physchem” was > 2000 µg/mL.

As for `COc1cccc2c1C(=O)c1c(O)c3c(c(O)c1C2=O)C[C@@](O)(C(=O)CO)C[C@@H]3O[C@H]1C[C@H](NC(=O)[C@H](CC(C)C)NC(=O)[C@H](CC(N)=O)NC(=O)[C@H](C)NC(=O)[C@H](C)NC(=O)[C@@H](NC(=O)CCCCCN2C(=O)C=CC2=O)[C@@H](C)O)[C@H](O)[C@H](C)O1` [QHL-130] ({Hexanoyl(6-maleimido)}-TAANL-{Doxorubicin(3'-N)}), the solubility in data set [3] was > 2000 µg/mL.

Regarding `COc1cccc2c1C(=O)c1c(O)c3c(c(O)c1C2=O)C[C@@](O)(C(=O)CO)C[C@@H]3O[C@H]1C[C@H](NC(=O)[C@H](CC(C)C)NC(=O)[C@H](CC(N)=O)NC(=O)[C@H](C)NC(=O)[C@H](C)NC(=O)[C@H](CS)NC(=O)CCCCCN2C(=O)C=CC2=O)[C@H](O)[C@H](C)O1` [QHL-131] ({Hexanoyl(6-maleimido)}-CAANL-{Doxorubicin(3'-N)}), the solubility in data set [3] was > 10000 µg/mL.

For `COc1cccc2c1C(=O)c1c(O)c3c(c(O)c1C2=O)C[C@@](O)(C(=O)CO)C[C@@H]3O[C@H]1C[C@H](NC(=O)[C@H](CC(C)C)NC(=O)[C@H](CC(N)=O)NC(=O)[C@H](C)NC(=O)[C@H](C)NC(=O)[C@H](Cc2ccc(O)cc2)NC(=O)CCCCCN2C(=O)C=CC2=O)[C@H](O)[C@H](C)O1` [QHL-132] ({Hexanoyl(6-maleimido)}-YAANL-{Doxorubicin(3'-N)}), the solubility in data set [3] is > 2000 µg/mL.

In the case of `COc1cccc2c1C(=O)c1c(O)c3c(c(O)c1C2=O)C[C@@](O)(C(=O)CO)C[C@@H]3O[C@H]1C[C@H](NC(=O)[C@H](CC(C)C)NC(=O)[C@H](CC(N)=O)NC(=O)[C@H](C)NC(=O)[C@H](C)NC(=O)[C@H](CC(N)=O)NC(=O)CCCCCN2C(=O)C=CC2=O)[C@H](O)[C@H](C)O1` [QHL-133] ({Hexanoyl(6-maleimido)}-NAANL-{Doxorubicin(3'-N)}), the solubility in data set [3] was > 2000 µg/mL.

Regarding `COc1cccc2c1C(=O)c1c(O)c3c(c(O)c1C2=O)C[C@@](O)(C(=O)CO)C[C@@H]3O[C@H]1C[C@H](NC(=O)[C@H](CC(C)C)NC(=O)[C@H](CC(N)=O)NC(=O)[C@H](C)NC(=O)[C@H](C)NC(=O)[C@H](CCC(N)=O)NC(=O)CCCCCN2C(=O)C=CC2=O)[C@H](O)[C@H](C)O1` [QHL-134] ({Hexanoyl(6-maleimido)}-QAANL-{Doxorubicin(3'-N)}), the solubility in data set [3] was > 5000 µg/mL.

Take `COc1cccc2c1C(=O)c1c(O)c3c(c(O)c1C2=O)C[C@@](O)(C(=O)CO)C[C@@H]3O[C@H]1C[C@H](NC(=O)[C@H](CC(C)C)NC(=O)[C@H](CC(N)=O)NC(=O)[C@H](C)NC(=O)[C@H](C)NC(=O)[C@H](CCCCN)NC(=O)CCCCCN2C(=O)C=CC2=O)[C@H](O)[C@H](C)O1` [QHL-135] ({Hexanoyl(6-maleimido)}-KAANL-{Doxorubicin(3'-N)}): the solubility in data set [3] is > 5000 µg/mL.

As for `COc1cccc2c1C(=O)c1c(O)c3c(c(O)c1C2=O)C[C@@](O)(C(=O)CO)C[C@@H]3O[C@H]1C[C@H](NC(=O)[C@H](CC(C)C)NC(=O)[C@H](CC(N)=O)NC(=O)[C@H](C)NC(=O)[C@H](C)NC(=O)[C@H](CCCNC(=N)N)NC(=O)CCCCCN2C(=O)C=CC2=O)[C@H](O)[C@H](C)O1` [QHL-136] ({Hexanoyl(6-maleimido)}-RAANL-{Doxorubicin(3'-N)}), the solubility in data set [3] was > 2000 µg/mL.

In the case of `COc1cccc2c1C(=O)c1c(O)c3c(c(O)c1C2=O)C[C@@](O)(C(=O)CO)C[C@@H]3O[C@H]1C[C@H](NC(=O)[C@H](CC(C)C)NC(=O)[C@H](CC(N)=O)NC(=O)[C@H](C)NC(=O)[C@H](C)NC(=O)[C@H](Cc2c[nH]cn2)NC(=O)CCCCCN2C(=O)C=CC2=O)[C@H](O)[C@H](C)O1` [QHL-137] ({Hexanoyl(6-maleimido)}-HAANL-{Doxorubicin(3'-N)}), the solubility in data set [3] was > 5000 µg/mL.
